Test results from patent US20230416248A1, “COMPOUNDS AND USES THEREOF” (Foghorn Therapeutics Inc., priority 2020, published 2023).
Where two headings read alike, the source gives them in different places.

Columns and labels:
BRM = molecular target: T1, BRM (Homo sapiens, UniProt P51531); experiment: ATPase catalytic activity of BRM, ADP-Glo in vitro biochemical assay; settings: for IC50: 30 nM BRM, 400 μM ATP; for Ratio* (BRG1 IC50 (μM) divided by BRM IC50 (μM)): selectivity ratio BRG1 IC50 / BRM IC50
T1 construct: made in house; host or cells: High Five insect cells
T1 sequence (P51531 whole entry): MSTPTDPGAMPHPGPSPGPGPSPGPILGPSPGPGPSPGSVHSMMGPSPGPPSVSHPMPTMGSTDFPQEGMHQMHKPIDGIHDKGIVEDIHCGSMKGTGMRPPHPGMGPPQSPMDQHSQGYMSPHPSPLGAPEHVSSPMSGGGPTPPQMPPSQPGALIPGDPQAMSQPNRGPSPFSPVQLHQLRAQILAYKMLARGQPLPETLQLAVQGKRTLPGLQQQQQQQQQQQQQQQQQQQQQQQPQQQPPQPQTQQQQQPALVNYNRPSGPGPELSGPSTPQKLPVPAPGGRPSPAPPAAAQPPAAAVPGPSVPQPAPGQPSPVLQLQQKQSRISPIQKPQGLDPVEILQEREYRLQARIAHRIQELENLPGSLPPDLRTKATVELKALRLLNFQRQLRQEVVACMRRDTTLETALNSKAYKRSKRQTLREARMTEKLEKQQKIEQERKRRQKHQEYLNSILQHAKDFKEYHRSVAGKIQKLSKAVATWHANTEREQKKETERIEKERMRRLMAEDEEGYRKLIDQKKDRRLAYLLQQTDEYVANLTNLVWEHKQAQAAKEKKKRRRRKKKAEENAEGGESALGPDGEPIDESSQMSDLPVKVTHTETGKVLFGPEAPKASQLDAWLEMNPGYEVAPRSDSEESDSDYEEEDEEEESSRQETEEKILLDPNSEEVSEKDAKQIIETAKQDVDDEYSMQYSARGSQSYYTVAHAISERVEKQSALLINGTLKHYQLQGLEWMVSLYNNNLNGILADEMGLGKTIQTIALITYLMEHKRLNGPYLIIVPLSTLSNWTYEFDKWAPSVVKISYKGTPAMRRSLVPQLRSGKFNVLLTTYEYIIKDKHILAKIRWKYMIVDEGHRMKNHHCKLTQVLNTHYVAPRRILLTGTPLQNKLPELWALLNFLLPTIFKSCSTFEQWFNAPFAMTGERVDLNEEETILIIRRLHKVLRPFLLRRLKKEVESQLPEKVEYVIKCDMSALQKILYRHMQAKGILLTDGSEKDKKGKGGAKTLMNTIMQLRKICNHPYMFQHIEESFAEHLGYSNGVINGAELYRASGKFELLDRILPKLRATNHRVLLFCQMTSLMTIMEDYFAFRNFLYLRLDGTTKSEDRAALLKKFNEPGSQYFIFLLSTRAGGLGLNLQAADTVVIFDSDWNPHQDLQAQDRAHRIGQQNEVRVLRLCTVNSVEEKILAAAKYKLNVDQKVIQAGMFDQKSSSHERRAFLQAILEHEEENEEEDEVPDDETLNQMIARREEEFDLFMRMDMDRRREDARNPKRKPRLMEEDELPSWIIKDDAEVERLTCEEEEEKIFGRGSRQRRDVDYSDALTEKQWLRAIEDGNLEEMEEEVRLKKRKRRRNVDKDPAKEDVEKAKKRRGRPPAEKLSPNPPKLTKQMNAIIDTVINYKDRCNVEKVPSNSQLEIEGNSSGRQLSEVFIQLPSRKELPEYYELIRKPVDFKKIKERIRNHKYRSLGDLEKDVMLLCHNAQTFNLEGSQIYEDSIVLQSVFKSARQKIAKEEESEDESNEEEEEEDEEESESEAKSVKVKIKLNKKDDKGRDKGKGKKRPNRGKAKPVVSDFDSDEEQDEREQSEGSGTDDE
Procedure, shortened: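 ADP-Glo luminescence, after depletion of leftover ATP and conversion of ADP, reported the activity. The 1 h room-temperature reaction held 400 μM ATP, 20 nM salmon sperm DNA and 30 nM BRM in 20 mM Tris pH 8, 20 mM MgCl2, 50 mM NaCl, 0.1% Tween-20, 1 mM DTT.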

BRG-1 = molecular target: T2, BRG-1 (Homo sapiens, UniProt P51532); experiment: ATPase catalytic activity of BRG-1, ADP-Glo in vitro biochemical assay; settings: 30 nM BRG-1, 400 μM ATP, read-out: BRG1 IC50
T2 construct: made in house; host or cells: High Five insect cells
T2 sequence (P51532 whole entry): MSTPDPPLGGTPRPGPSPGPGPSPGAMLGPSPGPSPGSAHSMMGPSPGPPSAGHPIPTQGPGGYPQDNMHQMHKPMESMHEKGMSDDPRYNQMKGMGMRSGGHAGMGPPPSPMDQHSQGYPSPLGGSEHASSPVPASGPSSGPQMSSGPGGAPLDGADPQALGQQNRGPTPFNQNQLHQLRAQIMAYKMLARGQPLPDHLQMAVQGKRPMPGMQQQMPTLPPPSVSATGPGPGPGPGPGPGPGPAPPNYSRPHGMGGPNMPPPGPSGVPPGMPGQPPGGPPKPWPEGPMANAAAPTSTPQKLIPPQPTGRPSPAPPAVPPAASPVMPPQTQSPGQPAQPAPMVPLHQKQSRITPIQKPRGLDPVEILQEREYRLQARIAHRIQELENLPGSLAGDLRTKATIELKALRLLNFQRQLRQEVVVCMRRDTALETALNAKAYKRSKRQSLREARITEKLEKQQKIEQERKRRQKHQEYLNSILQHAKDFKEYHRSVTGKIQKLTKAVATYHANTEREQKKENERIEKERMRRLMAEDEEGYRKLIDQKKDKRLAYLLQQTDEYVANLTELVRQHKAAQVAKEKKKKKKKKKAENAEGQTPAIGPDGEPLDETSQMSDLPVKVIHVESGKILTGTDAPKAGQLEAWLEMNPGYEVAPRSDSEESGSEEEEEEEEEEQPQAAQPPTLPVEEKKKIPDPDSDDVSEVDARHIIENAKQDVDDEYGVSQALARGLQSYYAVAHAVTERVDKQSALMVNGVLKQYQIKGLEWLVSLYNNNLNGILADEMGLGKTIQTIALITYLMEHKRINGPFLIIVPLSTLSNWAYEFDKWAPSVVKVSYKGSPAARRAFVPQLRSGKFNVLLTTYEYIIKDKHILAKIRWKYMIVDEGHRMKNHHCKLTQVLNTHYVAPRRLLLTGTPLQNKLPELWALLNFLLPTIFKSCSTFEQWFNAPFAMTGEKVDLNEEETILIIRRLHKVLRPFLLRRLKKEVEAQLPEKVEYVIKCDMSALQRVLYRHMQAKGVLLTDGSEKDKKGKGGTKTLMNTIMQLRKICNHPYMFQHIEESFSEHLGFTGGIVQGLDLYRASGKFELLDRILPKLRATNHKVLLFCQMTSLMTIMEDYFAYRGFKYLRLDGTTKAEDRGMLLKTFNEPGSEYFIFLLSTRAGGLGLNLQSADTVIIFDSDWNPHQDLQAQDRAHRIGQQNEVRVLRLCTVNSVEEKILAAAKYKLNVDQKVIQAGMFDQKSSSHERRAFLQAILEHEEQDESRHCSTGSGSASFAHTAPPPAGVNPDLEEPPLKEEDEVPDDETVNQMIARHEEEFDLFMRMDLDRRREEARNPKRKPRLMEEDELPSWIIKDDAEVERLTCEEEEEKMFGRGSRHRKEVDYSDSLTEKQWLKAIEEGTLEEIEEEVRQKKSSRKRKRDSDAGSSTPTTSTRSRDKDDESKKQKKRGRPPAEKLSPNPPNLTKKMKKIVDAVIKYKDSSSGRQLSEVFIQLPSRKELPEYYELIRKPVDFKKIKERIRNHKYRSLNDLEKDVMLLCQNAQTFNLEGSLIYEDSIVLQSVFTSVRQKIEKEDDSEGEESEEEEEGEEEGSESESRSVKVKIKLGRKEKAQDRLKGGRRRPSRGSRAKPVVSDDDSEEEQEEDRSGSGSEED
Procedure, shortened: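 ADP produced by BRG-1 was quantified by luciferase luminescence. A 60 min room-temperature ADP-to-ATP conversion followed a 40 min ATP-depletion step.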

[1] = ATPase catalytic activity, ADP-Glo

IC50 (BRM; ADP-Glo ATPase assay) [nM] | Ratio* (BRG1 IC50 (μM) divided by BRM IC50 (μM)) (BRM) | IC50 (BRG-1; ADP-Glo ATPase assay) [nM] | IC50 (BRM; [1]) [nM] | Ratio* (BRM; ratio of BRG1 IC50 to BRM IC50) | IC50 (BRG-1; [1]) [nM] | Ratio* (BRM; ratio BRG1 IC50 / BRM IC50) | SMILES
142 | 14.94 | 2130 | – | – | – | – | O=C(NCc1cc2nc(-c3cccc(C4(F)CCC4)n3)ccc2cn1)c1ccc2c(c1)S(=O)(=O)CCOC2 [Compound 154]
– | – | – | 36.1 | 11.52 | 416 | – | COC[C@H]1C[C@@H]1c1cccc(-c2ccc3cnc(CNC(=O)c4ccc5c(c4)S(=O)(=O)CCOC5)cc3n2)n1 [Compound 369]
– | – | – | 185 | 4.97 | 919 | – | O=C(NCc1cc2nc(-c3cccc(N(C4CCOCC4)C4CC4)n3)ccc2cn1)c1ccc2c(c1)S(=O)(=O)CCOC2 [Compound 398]
211 | 7.78 | 1640 | – | – | – | – | CCO[C@H]1CCOc2c(-c3ccc4cnc(CNC(=O)c5ccc6c(c5)S(=O)(=O)CCOC6)cc4n3)cccc21 [Compound 66]
846 | 4.79 | 4050 | – | – | – | – | O=C(NCc1cc2nc(-c3cccc4c3CCCN4CC(F)F)ccc2cn1)c1ccc2c(c1)S(=O)(=O)CCOC2 [Compound 127]
– | – | – | 5.1 | 11.83 | 60.2 | – | CO[C@@H]1C[C@H]1N(C)c1cccc(-c2ccc3cnc(CNC(=O)c4ccc5c(c4)S(=O)(=O)CCOC5)cc3n2)n1 [Compound 480]
92.3 | – | 801 | – | – | – | 8.67 | COc1nn(C(F)F)cc1-c1ccc2cnc(CNC(=O)c3ccc4c(c3)S(=O)(=O)CCOC4)cc2n1 [Compound 806]
– | – | – | 60.2 | 8.02 | 483 | – | CO[C@H]1CCN(c2cccc(-c3ccc4cnc(CNC(=O)c5ccc6c(c5)S(=O)(=O)CCOC6)cc4n3)n2)C[C@@H]1C [Compound 352]
– | – | – | 6.6 | 10.88 | 72.4 | – | CN(C[C@H]1CCO1)c1cccc(-c2ccc3cnc(CNC(=O)c4ccc5c(c4)S(=O)(=O)CCOC5)cc3n2)n1 [Compound 383]
11.1 | 12.29 | 136 | – | – | – | – | O=C(NCc1cc2nc(-c3cccc(N4CCOCC4)n3)ccc2cn1)c1ccc2c(c1)S(=O)(=O)CCOC2 [Compound 226]
147 | 9.21 | 1350 | – | – | – | – | CN1CCN(c2cccc(-c3ccc4cnc(CNC(=O)c5ccc6c(c5)S(=O)(=O)CCOC6)cc4n3)n2)CC1 [Compound 144]
203 | 4.45 | 903 | – | – | – | – | C[C@@H]1COC[C@H](C)N1c1cccc(-c2ccc3cnc(CNC(=O)c4ccc5c(c4)S(=O)(=O)CCOC5)cc3n2)n1 [Compound 104]
– | – | – | 157 | 15.21 | 2390 | – | COC1CCN(c2ccc3cnc(CNC(=O)c4ccc5c(c4)S(=O)(=O)CCOC5)cc3n2)c2ncccc21 (stereo not drawn) [Compound 496]

The remaining lines, values behind:

SMILES | IC50 (BRM; ADP-Glo ATPase assay) [nM] | Ratio* (BRG1 IC50 (μM) divided by BRM IC50 (μM)) (BRM) | IC50 (BRG-1; ADP-Glo ATPase assay) [nM] | IC50 (BRM; [1]) [nM] | Ratio* (BRM; ratio of BRG1 IC50 to BRM IC50) | IC50 (BRG-1; [1]) [nM] | Ratio* (BRM; ratio BRG1 IC50 / BRM IC50)
Cc1cc(C(=O)NCc2cc3nc(-c4cccc(N5C[C@@H](C)O[C@@H](C)C5)n4)ccc3cn2)cc2c1OCC[C@H](C)S2(=O)=O [Compound 456] | – | – | – | 18.5 | 21.49 | 398 | –
CC(C)(F)c1cncc(-c2ccc3cnc(CNC(=O)c4ccc5c(c4)S(=O)(=O)CCOC5)cc3n2)n1 [Compound 262] | 466 | 5.63 | 2620 | – | – | – | –
C[C@@H]1CN(c2nccc(-c3ccc4cnc(CNC(=O)c5ccc(Cl)c(S(C)(=O)=O)c5)cc4n3)n2)C[C@H](C)O1 [Compound 180] | 17.6 | 15.48 | 272 | – | – | – | –
COCc1ccc2c(c1)N(c1ccc3cnc(CNC(=O)c4ccc5c(c4)S(=O)(=O)CCOC5)cc3n1)CCC2 [Compound 605] | – | – | – | 11.7 | 16.04 | 187 | –
C[C@@H]1CN(c2cccc(-c3ccc4cnc(CNC(=O)c5cc(Cl)c6c(c5)S(=O)(=O)CCOC6)cc4n3)n2)C[C@H](C)O1 [Compound 143] | 7.6 | 14.36 | 108 | – | – | – | –
COc1nc(C(F)F)ccc1-c1ccc2cnc(CNC(=O)c3cc(F)c4c(c3)S(=O)(=O)CCOC4)cc2n1 [Compound 404] | – | – | – | 8.4 | 17.03 | 142 | –
CS(=O)(=O)c1cc(C(=O)NCc2cc3nc(-c4cn([C@H]5C[C@H](F)C5)nc4OC(F)F)ccc3cn2)ccc1C(F)F [Compound 348] | – | – | – | 74.3 | 34.42 | 2560 | –
C[C@@H]1CN(c2cccc(-c3ccc4cnc(CNC(=O)c5ccc6c(c5)S(=O)(=O)CCC(F)C6)cc4n3)n2)C[C@H](C)O1 (stereo partly drawn) [Compound 779] | 5.5 | – | 11.7 | – | – | – | 2.13
C[C@@H]1CN(c2cccc(-c3ccc4cnc(CNC(=O)c5ccc6c(c5)S(=O)(=O)CC[C@@H](C5CC5)O6)cc4n3)n2)C[C@H](C)O1 [Compound 433] | – | – | – | 331 | 13.59 | 4500 | –
O=C(NCc1cc2nc(N3CCCc4ccc(N5CCC5)nc43)ccc2cn1)c1ccc2c(c1)S(=O)(=O)CCOC2 [Compound 566] | – | – | – | 32.6 | 20.83 | 679 | –
CN(C)c1ccc2c(n1)OCCN2c1ccc2cnc(CNC(=O)c3ccc4c(c3)S(=O)(=O)CCOC4)cc2n1 [Compound 845] | 21.2 | – | 184 | – | – | – | 8.66
CCc1cc(C(=O)NCc2cc3nc(-c4cccc(N5C[C@@H](C)O[C@@H](C)C5)n4)ccc3cn2)cc2c1COCCS2(=O)=O [Compound 59] | 73 | 10.68 | 780 | – | – | – | –
COCc1nc2c(cc1Cl)CCCN2c1ccc2cnc(CNC(=O)c3ccc4c(c3)S(=O)(=O)CCOC4)cc2n1 [Compound 599] | – | – | – | 58.8 | 12.54 | 737 | –
Cc1cnc2c(c1)CCCN2c1ccc2cnc(CNC(=O)c3ccc4c(c3)S(=O)(=O)[C@@H](C)COC4)cc2n1 [Compound 396] | – | – | – | 5.9 | 17.40 | 104 | –
C[C@@H]1CCS(=O)(=O)c2cc(C(=O)NCc3cc4nc(-c5cccc(N6C[C@@H](C)O[C@@H](C)C6)n5)ccc4cn3)cc(F)c2O1 [Compound 494] | – | – | – | 22.4 | 4.39 | 98.5 | –
O=C(NCc1cc2nc(N3CCCc4ccc(OCC5CC5)nc43)ccc2cn1)c1ccc2c(c1)S(=O)(=O)CCOC2 [Compound 589] | – | – | – | 77.7 | 13.88 | 1080 | –
C[C@H]1COCc2ccc(C(=O)NCc3cc4nc(-c5cccc(N6C[C@H]7COC[C@H]7C6)n5)ccc4cn3)cc2S1(=O)=O [Compound 709] | 37.6 | – | 436 | – | – | – | 11.57
CN(C)c1ccnc2c1CCCN2c1ccc2cnc(CNC(=O)c3ccc4c(c3)S(=O)(=O)CCOC4)cc2n1 [Compound 837] | 33 | – | 163 | – | – | – | 4.95
O=C(NCc1cc2nc(N3CCCc4cc(C5CC5)ncc43)ccc2cn1)c1ccc2c(c1)S(=O)(=O)CCOC2 [Compound 725] | 26.8 | – | 294 | – | – | – | 10.95
COCCN(C)c1cccc(-c2ccc3cnc(CNC(=O)c4cc(F)c5c(c4)S(=O)(=O)CCOC5)cc3n2)n1 [Compound 100] | 8 | 11.83 | 94.1 | – | – | – | –
